Test results as given in ChEMBL document CHEMBL1201862, “PubChem BioAssay data set” (2004).
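Results reflect a 48-hour exposure of cells in 96-well plates to compound at five concentrations. GI50 marks 50% less growth.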 The source made the active and inactive calls. Cut-off read from the data, not from the text of the source: active = GI50 up to about 1.1 µM and inactive = higher.

Key:
Test in all cases: NCI-60 cell line screen, 48 h
RPMI-8226 = system: RPMI-8226
RXF 631 = system: RXF 631
UACC-62 = system: UACC-62
DLD-1 = system: DLD-1
NCI-H522 = system: NCI-H522
NCI-H460 = system: NCI-H460
SK-MEL-5 = system: SK-MEL-5
IGROV-1 = system: IGROV-1
SNB-19 = system: SNB-19
SF-539 = system: SF-539
OVCAR-4 = system: OVCAR-4
TK-10 = system: TK-10
SK-OV-3 = system: SK-OV-3
SNB-75 = system: SNB-75
M19-MEL = system: M19-MEL
SW-620 = system: SW-620
OVCAR-3 = system: OVCAR-3
SNB-78 = system: SNB-78
LXFL 529 = system: LXFL 529
HL-60 = system: HL-60
RXF 393 = system: RXF 393
SN12C = system: SN12C
NCI-H23 = system: NCI-H23
KM12 = system: KM12
LOX IMVI = system: LOX IMVI
SK-MEL-28 = system: SK-MEL-28
U-251 = system: U-251
HOP-62 = system: HOP-62
COLO 205 = system: COLO 205
OVCAR-8 = system: OVCAR-8
M14 = system: M14
A549 = system: A549
HT-29 = system: HT-29
NCI-H226 = system: NCI-H226
HCC 2998 = system: HCC 2998
K562 = system: K562
CCRF-CEM = system: CCRF-CEM
UACC-257 = system: UACC-257
DMS-273 = system: DMS-273
HCT-15 = system: HCT-15
HOP-92 = system: HOP-92
EKVX = system: EKVX
MOLT-4 = system: MOLT-4
Malme-3M = system: Malme-3M
UO-31 = system: UO-31
ACHN = system: ACHN
XF498 = system: XF498
OVCAR-5 = system: OVCAR-5
A498 = system: A498
SF-295 = system: SF-295
SK-MEL-2 = system: SK-MEL-2
786-0 = system: 786-0
SR = system: SR
HCT-116 = system: HCT-116
DMS-114 = system: DMS-114
HOP-18 = system: HOP-18
SF-268 = system: SF-268
KM-20L2 = system: KM-20L2

SMILES: CC(C)(C)N1C(C(=O)c2ccccc2)C1c1ccccc1 (stereo not given)
- GI50 (RPMI-8226): > 100 µM (inactive)
- GI50 (RXF 631): > 100 µM (inactive)
- GI50 (UACC-62): > 100 µM (inactive)
- GI50 (DLD-1): > 100 µM (inactive)
- GI50 (NCI-H522): > 100 µM (inactive)
- GI50 (NCI-H460): > 100 µM (inactive)
- GI50 (SK-MEL-5): > 100 µM (inactive)
- GI50 (IGROV-1): > 100 µM (inactive)
- GI50 (SNB-19): > 100 µM (inactive)
- GI50 (SF-539): > 100 µM (inactive)
- GI50 (OVCAR-4): > 100 µM (inactive)
- GI50 (TK-10): > 100 µM (inactive)
- GI50 (SK-OV-3): > 100 µM (inactive)
- GI50 (SNB-75): > 100 µM (inactive)
- GI50 (M19-MEL): > 100 µM (inactive)
- GI50 (SW-620): > 100 µM (inactive)
- GI50 (OVCAR-3): > 100 µM (inactive)
- GI50 (SNB-78): > 100 µM (inactive)
- GI50 (LXFL 529): > 100 µM (inactive)
- GI50 (HL-60): > 100 µM (inactive)
- GI50 (RXF 393): > 100 µM (inactive)
- GI50 (SN12C): > 100 µM (inactive)
- GI50 (NCI-H23): > 100 µM (inactive)
- GI50 (KM12): > 100 µM (inactive)
- GI50 (LOX IMVI): > 100 µM (inactive)
- GI50 (SK-MEL-28): > 100 µM (inactive)
- GI50 (U-251): > 100 µM (inactive)
- GI50 (HOP-62): > 100 µM (inactive)
- GI50 (COLO 205): > 100 µM (inactive)
- GI50 (OVCAR-8): > 100 µM (inactive)
- GI50 (M14): > 100 µM (inactive)
- GI50 (A549): > 100 µM (inactive)
- GI50 (HT-29): > 100 µM (inactive)
- GI50 (NCI-H226): > 100 µM (inactive)
- GI50 (HCC 2998): > 100 µM (inactive)
- GI50 (K562): > 100 µM (inactive)
- GI50 (CCRF-CEM): > 100 µM (inactive)
- GI50 (UACC-257): > 100 µM (inactive)
- GI50 (DMS-273): > 100 µM (inactive)
- GI50 (HCT-15): > 100 µM
- GI50 (HOP-92): > 100 µM (inactive)
- GI50 (EKVX): > 100 µM (inactive)
- GI50 (MOLT-4): > 100 µM (inactive)

SMILES: O=C(NNC(=O)c1cc(/C=C/c2cccc([N+](=O)[O-])c2)nc(S)n1)Nc1ccc(Cl)cc1
- GI50 (RPMI-8226): 25.5 µM (inactive)
- GI50 (Malme-3M): > 100 µM (inactive)
- GI50 (UO-31): 91.2 µM (inactive)
- GI50 (UACC-62): 50.6 µM (inactive)
- GI50 (DLD-1): 20.2 µM (inactive)
- GI50 (NCI-H522): 22.7 µM (inactive)
- GI50 (NCI-H460): 46.6 µM (inactive)
- GI50 (SK-MEL-5): 86.5 µM (inactive)
- GI50 (IGROV-1): > 100 µM (inactive)
- GI50 (TK-10): > 100 µM (inactive)
- GI50 (SK-OV-3): > 100 µM (inactive)
- GI50 (SNB-75): > 100 µM (inactive)
- GI50 (M19-MEL): 69 µM (inactive)
- GI50 (OVCAR-3): 62.8 µM (inactive)
- GI50 (SNB-78): > 100 µM (inactive)
- GI50 (ACHN): > 100 µM (inactive)
- GI50 (XF498): 28.6 µM (inactive)
- GI50 (OVCAR-5): > 100 µM (inactive)
- GI50 (A498): > 100 µM (inactive)
- GI50 (SF-295): > 100 µM (inactive)
- GI50 (SK-MEL-2): > 100 µM (inactive)
- GI50 (LXFL 529): 42.3 µM (inactive)
- GI50 (HL-60): 0.883 µM (active)
- GI50 (RXF 393): 34.5 µM (inactive)
- GI50 (SN12C): > 100 µM (inactive)
- GI50 (NCI-H23): 77.4 µM (inactive)
- GI50 (786-0): 47.8 µM (inactive)
- GI50 (KM12): 98.9 µM (inactive)
- GI50 (LOX IMVI): 20 µM (inactive)
- GI50 (SR): 1.25 µM (inactive)
- GI50 (HCT-116): 27.2 µM (inactive)
- GI50 (SK-MEL-28): > 100 µM (inactive)
- GI50 (U-251): 14.8 µM (inactive)
- GI50 (HOP-62): > 100 µM (inactive)
- GI50 (COLO 205): 18.4 µM (inactive)
- GI50 (OVCAR-8): 68.4 µM (inactive)
- GI50 (DMS-114): 30.8 µM (inactive)
- GI50 (M14): 93.8 µM (inactive)
- GI50 (A549): 70 µM (inactive)
- GI50 (HT-29): 41.8 µM (inactive)
- GI50 (NCI-H226): > 100 µM (inactive)
- GI50 (HOP-18): > 100 µM (inactive)
- GI50 (SF-268): > 100 µM (inactive)
- GI50 (HCC 2998): > 100 µM (inactive)
- GI50 (K562): 39.2 µM (inactive)
- GI50 (KM-20L2): 45.9 µM (inactive)
- GI50 (CCRF-CEM): 20.6 µM (inactive)
- GI50 (UACC-257): 91 µM (inactive)
- GI50 (DMS-273): > 100 µM (inactive)
- GI50 (HCT-15): 35.6 µM
- GI50 (EKVX): > 100 µM (inactive)
- GI50 (MOLT-4): 23.6 µM (inactive)
